Results published in the supplement of paper PMC10307832.

Assays:
Experiment in all cases: relative viability (nuclei count vs DMSO), 5 days (fraction); higher = more cells survive
[1] = compound: COc1cc2c(Oc3ccc4[nH]c(C)cc4c3F)ncnc2cc1OCCCN1CCCC1 [Cediranib] + CC(=O)c1c(C)c2cnc(Nc3ccc(N4CCNCC4)cn3)nc2n(C2CCCC2)c1=O [Palbociclib] (partner 0.5 µM)
How it was run: (§1)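 One day after seeding in 1536-well plates, lung cancer cell lines were dosed by pin tool. Dosing was either single-drug or a fixed anchor-drug dose plus five library-drug doses (not always all listed) in √10 steps. After 5 days, nuclei were stained in one fix-and-stain step and counted on 4× images, and relative viability is the nuclei count of treated wells over that of vehicle wells, given as the median of duplicate plates.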

[2] = compound: COc1cc2c(Oc3ccc4[nH]c(C)cc4c3F)ncnc2cc1OCCCN1CCCC1 [Cediranib] + CC(=O)Nc1cccc(-n2c(=O)n(C3CC3)c(=O)c3c(Nc4ccc(I)cc4F)n(C)c(=O)c(C)c32)c1 [Trametinib] (partner 0.02 µM)
How it was run: as §1

[3] = compound: COc1cc2c(Oc3ccc4[nH]c(C)cc4c3F)ncnc2cc1OCCCN1CCCC1 [Cediranib] + N=C(N)NC(=N)NCCc1ccccc1 [Phenformin] (partner 250 µM)
How it was run: as §1

[4] = compound: COc1cc2c(Oc3ccc4[nH]c(C)cc4c3F)ncnc2cc1OCCCN1CCCC1 [Cediranib] + Nc1nc2[nH]cc(CCc3ccc(C(=O)N[C@@H](CCC(=O)O)C(=O)O)cc3)c2c(=O)[nH]1 [Pemetrexed] (partner 0.2 µM)
How it was run: as §1

Row | Cell Line | relative viability ([1]; first compound 0.04 µM) | relative viability ([1]; first compound 0.1265 µM) | relative viability ([1]; first compound 0.4 µM) | relative viability ([1]; first compound 1.265 µM) | relative viability ([1]; first compound 4 µM) | relative viability ([2]; first compound 0.04 µM) | relative viability ([2]; first compound 0.1265 µM) | relative viability ([2]; first compound 0.4 µM) | relative viability ([2]; first compound 1.265 µM) | relative viability ([2]; first compound 4 µM) | relative viability ([3]; first compound 0.04 µM) | relative viability ([3]; first compound 0.1265 µM) | relative viability ([3]; first compound 0.4 µM) | relative viability ([3]; first compound 1.265 µM) | relative viability ([3]; first compound 4 µM) | relative viability ([4]; first compound 0.04 µM) | relative viability ([4]; first compound 0.1265 µM) | relative viability ([4]; first compound 0.4 µM) | relative viability ([4]; first compound 1.265 µM) | relative viability ([4]; first compound 4 µM)
1 | LCLC-103H | 0.494 | 0.47 | 0.511 | 0.469 | 0.521 | 0.73 | 0.664 | 0.676 | 0.747 | 0.7 | 0.319 | 0.39 | 0.298 | 0.344 | 0.352 | 0.502 | 0.477 | 0.514 | 0.427 | 0.475
2 | EKVX | 0.394 | 0.386 | 0.326 |  | 0.316 | 0.283 | 0.4 | 0.343 |  | 0.402 | 0.212 | 0.177 | 0.221 | 0.259 | 0.233 | 0.512 | 0.412 | 0.384 |  | 0.441
3 | NCI-H460 | 0.196 | 0.175 | 0.21 | 0.161 | 0.202 | 0.111 | 0.156 | 0.138 | 0.153 | 0.214 | 0.528 | 0.576 | 0.527 | 0.512 | 0.56 | 0.0716 | 0.0662 | 0.0685 | 0.0585 | 0.0931
4 | NCI-H2170 | 0.438 |  | 0.371 | 0.372 | 0.381 | 0.993 |  | 0.935 | 0.81 | 0.986 | 0.373 | 0.284 | 0.403 | 0.406 | 0.419 | 0.295 |  | 0.233 | 0.264 | 0.258
5 | NCI-H838 | 0.229 | 0.228 | 0.218 | 0.181 | 0.214 | 0.508 | 0.494 | 0.491 | 0.514 | 0.705 | 0.588 | 0.513 | 0.49 | 0.452 | 0.603 | 0.252 | 0.241 | 0.229 | 0.257 | 0.231
6 | NCI-H1792 | 0.599 | 0.607 | 0.584 | 0.739 | 0.682 |  | 0.407 | 0.375 | 0.521 | 0.458 | 0.237 | 0.41 | 0.197 | 0.322 | 0.284 |  | 1.13 | 0.567 | 0.742 | 0.796
7 | H3255 | 0.322 | 0.322 | 0.316 | 0.308 | 0.334 | 0.606 |  | 0.623 |  | 0.567 | 0.404 |  | 0.337 | 0.373 | 0.312 | 0.588 | 0.542 | 0.567 | 0.533 | 0.54
8 | EPLC-272H | 0.297 |  | 0.312 | 0.327 | 0.318 | 0.318 |  | 0.278 | 0.269 | 0.242 | 0.307 |  | 0.334 |  | 0.253 | 0.361 | 0.345 | 0.375 | 0.37 | 0.282
9 | NCI-H647 | 0.349 | 0.385 | 0.336 | 0.457 | 0.448 | 0.48 | 0.428 | 0.441 | 0.515 | 0.491 | 0.513 | 0.504 | 0.47 | 0.605 | 0.441 | 0.185 | 0.254 | 0.2 | 0.178 | 0.172
